Experimental data published in patent US9115143B2, “Substituted indole derivatives as gamma secretase modulators” (Janssen Pharmaceuticals, Inc., priority 2011, dated 2015).

Key:
Aβ42 = assay: Screening for γ-secretase-modulating activity: Aβ42 in supernatant of SKNBE2 cells carrying hAPP 695 wild type (Alphalisa); type: cell-based, human; details: overnight incubation, Alphalisa on supernatant
Experimental: (§1) Pharmacology A) Screening of the Compounds of the Invention for γ-Secretase-Modulating Activity
(§2) Screening was carried out using SKNBE2 human neuroblastoma cells carrying the hAPP 695—wild type, grown in Dulbecco's Modified Eagle's Medium/Nutrient mixture F-12 (DMEM/NUT-mix F-12) (HAM) provided by Invitrogen (cat no. 10371-029) containing 5% Serum/Fe supplemented with 1% non-essential amino acids, 1-glutamine 2 mM, Hepes 15 mM, penicillin 50 U/mL (units/mL) en streptomycin 50 μg/mL. Cells were grown to near confluency.
(§3) The screening was performed using a modification of the assay as described in Citron et al (1997) Nature Medicine 3: 67. Briefly, cells were plated in a 384-well plate at 10^4 cells/well in Ultraculture (Lonza, BE12-725F) supplemented with 1% glutamine (Invitrogen, 25030-024), 1% non-essential amino acid (NEAA), penicillin 50 U/mL en streptomycin 50 μg/mL in the presence of test compound at different test concentrations. The cell/compound mixture was incubated overnight at 37° C., 5% CO2. The next day the media were assayed by two sandwich immuno-assays, for Aβ42 and Aβtotal.
(§4) Aβtotal and Aβ42 concentrations were quantified in the cell supernatant using the Aphalisa technology (Perkin Elmer). Alphalisa is a sandwich assay using biotinylated antibody attached to streptavidin coated donorbeads and antibody conjugated to acceptor beads. In the presence of antigen, the beads come into close proximity. The excitation of the donor beads provokes the release of singlet oxygen molecules that trigger a cascade of energy transfer in the acceptor beads, resulting in light emission. To quantify the amount of Aβ42 in the cell supernatant, monoclonal antibody specific to the C-terminus of Aβ42 (JRF/cAβ42/26) was coupled to the receptor beads and biotinylated antibody specific to the N-terminus of Aβ (JRF/AβN/25) was used to react with the donor beads. To quantify the amount of Aβ total in the cell supernatant, monoclonal antibody specific to the N-terminus of Aβ (JRF/AβN/25) was coupled to the receptor beads and biotinylated antibody specific to the mid region of Aβ (biotinylated 4G8) was used to react with the donor beads.
(§5) To obtain the values reported in Table 3, the data are calculated as percentage of the maximum amount of amyloid Beta 42 measured in the absence of the test compound. The sigmoidal dose response curves were analyzed using nonlinear regression analysis with percentage of the control plotted against the log concentration of the compound. A 4-parameter equation was used to determine the IC50.

Aβtotal = assay: Screening for γ-secretase-modulating activity: Aβtotal in supernatant of SKNBE2 cells carrying hAPP 695 wild type (Alphalisa); type: cell-based, human; details: overnight incubation, Alphalisa on supernatant
Experimental: as §1, §2, §3, §4, §5

[1] = Homo sapiens, SKNBE2, SKNBE2 human neuroblastoma cells carrying hAPP 695 wild type
[2] = SKNBE2 human neuroblastoma cells carrying hAPP 695 wild type

SMILES: Cc1cc(F)ccc1C1CCCn2nc(-c3nc4cc(-n5cncc5C)ccc4[nH]3)nc21 (stereo not shown) [Compound 177, 8-(4-fluoro-2-methylphenyl)-5,6,7,8-tetrahydro-2-[5-(5-methyl-1H-imidazol-1-yl)-1H-benzimidazol-2-yl]-[1,2,4]triazolo[1,5-a]pyridine]
- IC50 (Aβ42; [1]): 2.51 µM
- IC50 (Aβtotal; [1]): > 10 µM

SMILES: Cc1cc(F)ccc1C1OCCn2nc(-c3cc4c(OCC(F)F)c(C#N)ccc4[nH]3)nc21 (stereo not shown) [Compound 168, 4-(2,2-difluoroethoxy)-2-[8-(4-fluoro-2-methylphenyl)-5,6-dihydro-8H-[1,2,4]triazolo[5,1-c][1,4]oxazin-2-yl]-1H-indole-5-carbonitrile]
- IC50 (Aβ42; [1]): 0.245 µM
- IC50 (Aβtotal; [1]): > 10 µM

SMILES: COc1c(C#N)ccc2[nH]c(-c3cn4c(n3)C(c3cccc(C)c3F)OCC4)cc12 (single isomer, unassigned) [Compound 135, 2-[8-(2-fluoro-3-methylphenyl)-5,6-dihydro-8H-imidazo[2,1-c][1,4]oxazin-2-yl]-4-methoxy-1H-indole-5-carbonitrile]
- IC50 (Aβ42; [2]): 0.036 µM
- IC50 (Aβtotal; [1]): > 10 µM

SMILES: Cc1cn(-c2ccc3[nH]c(-c4nc5n(n4)CCCC5c4ccc(F)cc4C)cc3n2)cn1 (stereo not shown) [Compound 66, 8-(4-fluoro-2-methylphenyl)-5,6,7,8-tetrahydro-2-[5-(4-methyl-1H-imidazol-1-yl)-1H-pyrrolo[3,2-b]pyridin-2-yl]-[1,2,4]triazolo[1,5-a]pyridine]
- IC50 (Aβ42; [2]): 0.447 µM
- IC50 (Aβtotal; [2]): > 10 µM

SMILES: Cc1cc(F)ccc1C1CCCn2nc(-c3[nH]c4ccc(C#N)cc4c3F)nc21 (single isomer, unassigned) [Compound 181, 3-fluoro-2-[8-(4-fluoro-2-methylphenyl)-5,6,7,8-tetrahydro[1,2,4]triazolo[1,5-a]pyridin-2-yl]-1H-indole-5-carbonitrile]
- IC50 (Aβ42; [2]): 5.89 µM
- IC50 (Aβtotal; [1]): > 10 µM

SMILES: COc1c(-n2cnc(C)c2)ccc2[nH]c(-c3cn4c(n3)C(c3ccc(F)cc3C)OCC4)cc12 (single isomer, unassigned) [Compound 113, 8-(4-fluoro-2-methylphenyl)-5,6-dihydro-2-[4-methoxy-5-(4-methyl-1H-imidazol-1-yl)-1H-indol-2-yl]-8H-imidazo[2,1-c][1,4]oxazine]
- IC50 (Aβ42; [2]): 0.151 µM
- IC50 (Aβtotal; [2]): > 10 µM

SMILES: COc1c(C#N)ccc2[nH]c(-c3nc4n(n3)CCN(C)C4c3ccc(F)cc3C)cc12 (stereo not shown) [Compound 58, 2-[8-(4-fluoro-2-methylphenyl)-5,6,7,8-tetrahydro-7-methyl[1,2,4]triazolo[1,5-a]pyrazin-2-yl]-4-methoxy-1H-indole-5-carbonitrile]
- IC50 (Aβ42; [1]): 0.049 µM
- IC50 (Aβtotal; [1]): > 10 µM

SMILES: Cc1cc(-c2ccc3[nH]c(-c4nc5n(n4)CCCC5c4ccc(F)cc4C)nc3c2)ccn1 (single isomer, unassigned) [Compound 175, 8-(4-fluoro-2-methylphenyl)-5,6,7,8-tetrahydro-2-[5-(2-methyl-4-pyridinyl)-1H-benzimidazol-2-yl]-[1,2,4]triazolo[1,5-a]pyridine]
- IC50 (Aβ42; [2]): 0.028 µM
- IC50 (Aβtotal; [2]): > 10 µM

SMILES: COc1ccccc1C1CCCn2nc(-c3cc4cc(-n5cnc(C)c5)ccc4[nH]3)nc21 (single isomer, unassigned) [Compound 80, 5,6,7,8-tetrahydro-8-(2-methoxyphenyl)-2-[5-(4-methyl-1H-imidazol-1-yl)-1H-indol-2-yl]-[1,2,4]triazolo[1,5-a]pyridine]
- IC50 (Aβ42; [2]): 0.468 µM
- IC50 (Aβtotal; [1]): > 10 µM

SMILES: Cc1cn(-c2ccc3[nH]c(-c4nc5n(n4)CCCC5c4ccc(F)cc4C)cc3c2)cn1 (single isomer, unassigned) [Compound 76, 8-(4-fluoro-2-methylphenyl)-5,6,7,8-tetrahydro-2-[5-(4-methyl-1H-imidazol-1-yl)-1H-indol-2-yl]-[1,2,4]triazolo[1,5-a]pyridine]
- IC50 (Aβ42; [2]): 0.141 µM
- IC50 (Aβtotal; [1]): > 10 µM

SMILES: COc1c(C#N)ccc2[nH]c(-c3nc4n(n3)CCOC4c3ccccc3Cl)cc12 (stereo not shown) [Compound 130, 2-[8-(2-chlorophenyl)-5,6-dihydro-8H-[1,2,4]triazolo[5,1-c][1,4]oxazin-2-yl]-4-methoxy-1H-indole-5-carbonitrile]
- IC50 (Aβ42; [2]): 0.079 µM
- IC50 (Aβtotal; [1]): > 10 µM

SMILES: Cc1cc(-c2ccc3[nH]c(-c4nc5n(n4)CCCC5c4ccccc4C(F)(F)F)cc3c2)ccn1 (stereo not shown) [Compound 2, 5,6,7,8-tetrahydro-2-[5-(2-methyl-4-pyridinyl)-1H-indol-2-yl]-8-[2-(trifluoromethyl)phenyl]-[1,2,4]triazolo[1,5-a]pyridine]
- IC50 (Aβ42; [1]): 0.022 µM
- IC50 (Aβtotal; [1]): 7.41 µM

SMILES: COc1c(C#N)ccc2[nH]c(-c3nc4n(n3)CCOC4c3c(F)cccc3Cl)cc12 (single isomer, unassigned) [Compound 118, 2-[8-(2-chloro-6-fluorophenyl)-5,6-dihydro-8H-[1,2,4]triazolo[5,1-c][1,4]oxazin-2-yl]-4-methoxy-1H-indole-5-carbonitrile]
- IC50 (Aβ42; [2]): 3.8 µM
- IC50 (Aβtotal; [2]): > 10 µM

SMILES: COc1c(C#N)ccc2[nH]c(-c3cn4c(n3)C(c3ccc(F)c(Cl)c3)OCC4)cc12 (stereo not shown) [Compound 155, 2-[8-(3-chloro-4-fluorophenyl)-5,6-dihydro-8H-imidazo[2,1-c][1,4]oxazin-2-yl]-4-methoxy-1H-indole-5-carbonitrile]
- IC50 (Aβ42; [2]): 1.48 µM
- IC50 (Aβtotal; [2]): > 10 µM

SMILES: COCc1ccccc1C1OCCn2cc(-c3cc4c(OC)c(C#N)ccc4[nH]3)nc21 (stereo not shown) [Compound 145, 2-[5,6-dihydro-8-[2-(methoxymethyl)phenyl]-8H-imidazo[2,1-c][1,4]oxazin-2-yl]-4-methoxy-1H-indole-5-carbonitrile]
- IC50 (Aβ42; [2]): 0.11 µM
- IC50 (Aβtotal; [2]): > 10 µM

SMILES: COc1c(C#N)ccc2[nH]c(-c3cn4c(n3)COCC4c3ccccc3)cc12 (stereo not shown) [Compound 184, 2-(5,6-dihydro-5-phenyl-8H-imidazo[2,1-c][1,4]oxazin-2-yl)-4-methoxy-1H-indole-5-carbonitrile]
- IC50 (Aβ42; [1]): 3.09 µM
- IC50 (Aβtotal; [1]): 5.37 µM

SMILES: Cc1cc(F)ccc1C1CCCn2nc(-c3cc4cc(C#N)ncc4[nH]3)nc21 (stereo not shown) [Compound 68, 2-[8-(4-fluoro-2-methylphenyl)-5,6,7,8-tetrahydro[1,2,4]triazolo[1,5-a]pyridin-2-yl]-1H-pyrrolo[2,3-c]pyridine-5-carbonitrile]
- IC50 (Aβ42; [1]): 0.316 µM
- IC50 (Aβtotal; [1]): > 10 µM

SMILES: Cc1cn(-c2ccc3[nH]c(-c4nc5n(n4)CCCC5c4ccc(F)cc4C)nc3c2)cn1 (stereo not shown) [Compound 179, 8-(4-fluoro-2-methylphenyl)-5,6,7,8-tetrahydro-2-[5-(4-methyl-1H-imidazol-1-yl)-1H-benzimidazol-2-yl]-[1,2,4]triazolo[1,5-a]pyridine]
- IC50 (Aβ42; [2]): 0.407 µM
- IC50 (Aβtotal; [1]): > 10 µM

SMILES: COc1ccccc1C1CCCn2nc(-c3cc4cc(-n5cnc(C)c5)ccc4[nH]3)nc21 (single isomer, unassigned) [Compound 81, 5,6,7,8-tetrahydro-8-(2-methoxyphenyl)-2-[5-(4-methyl-1H-imidazol-1-yl)-1H-indol-2-yl]-[1,2,4]triazolo[1,5-a]pyridine]
- IC50 (Aβ42; [2]): 0.074 µM
- IC50 (Aβtotal; [2]): > 10 µM

SMILES: Cc1cc(F)ccc1C1OCCn2nc(-c3cc4c(OC(C)C)c(C#N)ccc4[nH]3)nc21 (stereo not shown) [Compound 166, 2-[8-(4-fluoro-2-methylphenyl)-5,6-dihydro-8H-[1,2,4]triazolo[5,1-c][1,4]oxazin-2-yl]-4-(1-methylethoxy)-1H-indole-5-carbonitrile]
- IC50 (Aβ42; [1]): 0.347 µM
- IC50 (Aβtotal; [1]): > 10 µM

SMILES: Cc1cc(-c2ccc3[nH]c(-c4nc5n(n4)CCCC5c4ccc(F)cc4C)nc3c2)ccn1 (single isomer, unassigned) [Compound 174, 8-(4-fluoro-2-methylphenyl)-5,6,7,8-tetrahydro-2-[5-(2-methyl-4-pyridinyl)-1H-benzimidazol-2-yl]-[1,2,4]triazolo[1,5-a]pyridine]
- IC50 (Aβ42; [2]): 0.11 µM
- IC50 (Aβtotal; [1]): > 10 µM

SMILES: Cc1cc(F)ccc1C1CCCn2nc(-c3cc4nc(-c5cnn(C)c5)ccc4[nH]3)nc21 (stereo not shown) [Compound 70, 8-(4-fluoro-2-methylphenyl)-5,6,7,8-tetrahydro-2-[5-(1-methyl-1H-pyrazol-4-yl)-1H-pyrrolo[3,2-b]pyridin-2-yl]-[1,2,4]triazolo[1,5-a]pyridine]
- IC50 (Aβ42; [2]): 1 µM
- IC50 (Aβtotal; [2]): > 10 µM

SMILES: COc1c(C#N)ccc2[nH]c(-c3nc4n(n3)CCOC4c3cccc(C)c3F)cc12 (single isomer, unassigned) [Compound 149, 2-[8-(2-fluoro-3-methylphenyl)-5,6-dihydro-8H-[1,2,4]triazolo[5,1-c][1,4]oxazin-2-yl]-4-methoxy-1H-indole-5-carbonitrile]
- IC50 (Aβ42; [2]): 1.86 µM
- IC50 (Aβtotal; [2]): > 10 µM
